Test results taken from article PMC5374420, “In Search of Small Molecule Inhibitors Targeting the Flexible CK2 Subunit Interface” (Pharmaceuticals, 2017).
Where a SMILES comes first, the peptide text is derived from it. Bridges are numbered along the chain shown (N, C = ends).

Columns and labels:
CK2α–CK2β interaction = biological target: T1, CK2α–CK2β interaction (Homo sapiens, UniProt P68400); assay: In vitro CK2α–CK2β interaction assay; type: binding; conditions: read-out: inhibition of subunit interaction
T1 construct: made in house
Method: Figure 4 Inhibitory activity of a TAT-Pc analogue in vitro. (A) CK2 holoenzyme (100 nM) was incubated in the presence of increasing concentrations of TAT-Pc 13 for 15 min at 4 °C. CK2 activity was then determined with CK2β-dependent or independent peptide substrates; (B) [^35S]-labeled CK2α was incubated with biotinylated MBP-CK2β immobilized on streptavidin coated plates (preformed complex) in the absence (1) or presence (2) of TAT-Pc 13. Alternatively, [^35S]-labeled CK2α was incubated with TAT-Pc 13 (3) or random TAT-Pc 13 (4) and then with immobilized biotinylated MBP-CK2β. After washing, the amount of [^35S]-labeled CK2α remaining in the complex was determined by radioactivity counting. Representative data shown from two independent experiments. Results are presented as mean ± s.d. of triplicates.
The CK2α–CK2β interaction assay involved competition between plate-bound biotinylated MBP–CK2β and various cyclic peptides for binding to [^35S] methionine-labelled CK2α. The assay was performed as previously described in [15].

HeLa = assay: Cell death of cancerous cell line, PrestoBlue assay; type: cell-based; conditions: 6 h, increasing concentrations (Figure S1)
Method: (§1) Alternatively, cell viability was measured using the PrestoBlue® assay (Invitrogen, Carlsbad, CA, USA). The microtiter plates containing the treated cells were incubated for 1 h with 10 µL PrestoBlue. The fluorescence was recorded at 580 nm using a FluoStar Optima plate reader (BMG LabTech, Ortenberg, Germany).
(§2) Supplementary Materials: In Search of Small
(§3) Molecule Inhibitors Targeting the Flexible CK2
(§4) Benoit Bestgen, Zakia Belaid-Choucair, Thierry Lomberget, Marc Le Borgne, Odile Filhol […]
(§5) Figure S1. Cellular effects of TAT-Pc 13. (A) MDA MB-231 cells (⦁-⦁) or HeLa cells (○-○) were incubated for 6 h with increasing concentrations of TAT-Pc 13 and cell death was measured using the PrestoBlue assay as described in Material and Methods; (B) 786-O cells were treated for 12 h with increasing concentrations of CX-4945, lysed and analyzed by Western blot; (C) 786-O cells were treated with 20 µM TAT-Pc 13 or 5 µM CX-4945 and immunostained for p21 expression.
(§6) Figure 2. Inhibition of TAT-Pc-induced cell death. MCF-10A cells were pre-treated in the absence (CTRL) or presence of 20 µM z-VAD or 30 µM Necrostatin-1 or 20 µM z-VAD + 30 µM Necrostatin-1 for 5 h and then incubated for 4 h with 25 µM random TAT-Pc 13 or TAT-Pc 13 and cell viability was evaluated as in Figure 8A. […]

MDA MB-231 = assay: as above; type: cell-based; conditions: 6 h, increasing concentrations (Figure S1)
Method: as §1, §2, §3, §4, §5, §6

CK2α = biological target: T2, CK2α (Homo sapiens, UniProt P68400); assay: Thermal shift assay in cell lysates; type: binding
T2 construct: endogenous in cells; host or cells: MCF-10A (CK2β-silenced by pLKO1 lentiviral shRNA; WT as comparison)
Method: Thermal shift assay (TSA) is based on the biophysical principle of ligand-induced thermal stabilization of target proteins. This assay can be used to detect protein–ligand interactions in complex cell extracts. Therefore, we have generated thermal melting curves from cell extracts, in which the extent of CK2 unfolding was measured. The assays were performed on WT or CK2β-depleted MCF-10A cell extracts incubated with 50 µM of TAT or TAT-Pc 13 and exposed to increasing temperatures.
Figure 5 Thermal shift assay in cell lysates. CK2β-depleted MCF-10A cell lysates were treated with 50 µM TAT or TAT-Pc 13 (A), or with PBS (Phosphate-buffered saline) or CK2β (B) for 30 min at room temperature. The respective lysates were divided into 20 µL aliquots and heated individually at different temperatures for 3 min. After centrifugation, the supernatants were assayed for CK2 activity with the CK2β-independent peptide substrate. Representative data shown from two independent experiments in duplicate.
CK2β-depleted MCF-10A cell lysates prepared in 50 mM Tris-HCl pH 7.5, 150 mM NaCl, and 2% glycerol supplemented with Complete Protease Inhibitor Cocktail (Sigma, #P8340) were divided into four aliquots with two being treated with 50 µM TAT or […] and the other two aliquots with CK2β or PBS (control). […]

T2 sequence (P68400 whole entry): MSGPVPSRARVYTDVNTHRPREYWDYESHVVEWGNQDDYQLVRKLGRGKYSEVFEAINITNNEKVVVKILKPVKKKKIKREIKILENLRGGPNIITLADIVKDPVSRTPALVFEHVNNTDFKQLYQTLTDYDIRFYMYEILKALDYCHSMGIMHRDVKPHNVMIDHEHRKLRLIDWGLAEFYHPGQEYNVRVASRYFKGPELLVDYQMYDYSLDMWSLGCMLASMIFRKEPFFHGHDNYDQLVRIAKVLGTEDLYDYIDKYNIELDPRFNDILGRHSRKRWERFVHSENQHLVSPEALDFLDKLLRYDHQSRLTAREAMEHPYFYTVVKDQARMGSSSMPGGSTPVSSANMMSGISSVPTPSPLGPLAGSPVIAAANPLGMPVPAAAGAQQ
T1 sequence (P68400 whole entry): as above

How did the inhibition at 50 µM (CK2α–CK2β interaction) turn out when `CC[C@H](C)[C@@H]1NC(=O)[C@H](CCCCN)NC(=O)[C@H](Cc2ccccc2)NC(=O)CNC(=O)[C@H](Cc2ccc(O)cc2)NC(=O)[C@H](CC(C)C)NC(=O)[C@H](CCCNC(=N)N)NC(=O)CNC(=O)CNC(=O)[C@@H](NC(=O)[C@H](CCC(N)=O)NC(=O)[C@@H]2CCCN2C(=O)[C@@H]2CCCN2C(=O)[C@H](CCCNC(=N)N)NC(=O)[C@H](CCCNC(=N)N)NC(=O)[C@H](CCCNC(=N)N)NC(=O)[C@H](CCC(N)=O)NC(=O)[C@H](CCCNC(=N)N)NC(=O)[C@H](CCCNC(=N)N)NC(=O)[C@H](CCCCN)NC(=O)[C@H](CCCCN)NC(=O)[C@H](CCCNC(=N)N)NC(=O)CN)CCCCNC(=O)CNC(=O)CNC(=O)[C@H](Cc2c[nH]cn2)NC1=O` [TAT-Pc 13] (H-GRKKRRQRRRPPQKGGRLYGFKIHGG; lactam 14-C; N-terminus assumed) was run?
Its inhibition at 50 µM is 80%.

And the “induction of cell death” value (HeLa)?
The value was “induce cell death”.

What about the “induction of cell death” value (MDA MB-231) of the same molecule?
Its value is “induce cell death”.

And the “shift in the melting curves” value (CK2α; CK2β-depleted MCF-10A cell extracts, 50 µM peptide, 30 min at room temperature, 3 min heating, read-out CK2 activity)?
Its value is 4 °C.

What about the “thermal shift in WT cell extracts” value (CK2α; extracts from WT MCF-10A cells, not shown) of the same molecule?
Its value is “no thermal shift”.
